# Values quoted from earlier work, collected in paper PMC4865847, “Putative histidine kinase inhibitors with antibacterial effect against multi-drug resistant clinical isolates identified by in vitro and in silico screens” (Scientific Reports, 2016).
# Legend:
# [1] = test system: Gram-positive B. subtilis; set-up: method as in PMID 25531939; settings: cited from earlier work
# [2] = test system: Gram negative E. coli DC2; set-up: method as in PMID 25531939; settings: cited from earlier work
# S. pneumoniae VicK = test system: S. pneumoniae VicK; set-up: method as in PMID 25531939; settings: cited from earlier work
# Gram positive strains = settings: cited from earlier work
# S. epidermidis YycG = test system: S. epidermidis YycG; set-up: method as in PMID 24737057; settings: read-out: IC50 S. epidermidis YycG (WalK) autophosphorylation; cited from earlier work
# E. coli = test system: E. coli; set-up: method as in PMID 25561178; settings: cited from earlier work
compound,measurement,setting,value
Nc1nc2ccc(Oc3ccc4nc(N)sc4c3)cc2s1 [Compound 11],MIC Gram positive,[1],≥ 49 µg/mL
same,MICs for the Gram-positive B. subtilis,[1],49 to 64 µg/mL
same,MIC Gram negative,[2],≥ 32 µg/mL
same,MICs for the Gram negative E. coli DC2,[2],32 to 64 µg/mL
same,IC50,S. pneumoniae VicK,75 µM
O=C(O)c1ccc(-c2ccc(/C=C3\S/C(=N\c4ccccc4)N(c4ccc(F)cc4)C3=O)s2)cc1 [H2-81],MIC Gram positive,Gram positive strains,≥ 0.75 µg/mL
same,IC50,S. epidermidis YycG,24 µM
teixobactin,antibacterial effect (MIC) against E. coli,E. coli,2 to 25 µg/mL
